Experimental data from patent US20240287076A1, “COMPOUNDS FOR TARGETING DEGRADATION OF BRUTON'S TYROSINE KINASE” (BIOGEN MA INC., priority 2021, published 2024).

target: T1, BTK (Homo sapiens, UniProt Q06187); test: BTK degradation assay using the HiBiT Method (Nano-Glo HiBiT Lytic Assay, GM01501.3 cells); assay type: cell-based; details: HiBiT Degradation on GM01501.3 BTK @ 6 hours
T1 construct: The GM01501.3 cell line endogenously expresses BTK with a HiBiT fusion tag via CRISPR knock-in at its C-terminal region; endogenous in cells; host or cells: GM01501.3 (GM01501 cells engineered by CRISPR knock-in of HiBiT at the BTK locus)
Method in brief: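 CRISPR knock-in GM01501.3 cells expressing endogenous BTK with C-terminal HiBiT tag, treated 6 h at 37 °C with compounds, 11-point half-log titration from 10 μM top, duplicates. Remaining BTK quantified by Nano-Glo HiBiT lytic luminescence versus DMSO controls; DC50 reported.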

T1 sequence (Q06187 whole entry, the tested form may be a part): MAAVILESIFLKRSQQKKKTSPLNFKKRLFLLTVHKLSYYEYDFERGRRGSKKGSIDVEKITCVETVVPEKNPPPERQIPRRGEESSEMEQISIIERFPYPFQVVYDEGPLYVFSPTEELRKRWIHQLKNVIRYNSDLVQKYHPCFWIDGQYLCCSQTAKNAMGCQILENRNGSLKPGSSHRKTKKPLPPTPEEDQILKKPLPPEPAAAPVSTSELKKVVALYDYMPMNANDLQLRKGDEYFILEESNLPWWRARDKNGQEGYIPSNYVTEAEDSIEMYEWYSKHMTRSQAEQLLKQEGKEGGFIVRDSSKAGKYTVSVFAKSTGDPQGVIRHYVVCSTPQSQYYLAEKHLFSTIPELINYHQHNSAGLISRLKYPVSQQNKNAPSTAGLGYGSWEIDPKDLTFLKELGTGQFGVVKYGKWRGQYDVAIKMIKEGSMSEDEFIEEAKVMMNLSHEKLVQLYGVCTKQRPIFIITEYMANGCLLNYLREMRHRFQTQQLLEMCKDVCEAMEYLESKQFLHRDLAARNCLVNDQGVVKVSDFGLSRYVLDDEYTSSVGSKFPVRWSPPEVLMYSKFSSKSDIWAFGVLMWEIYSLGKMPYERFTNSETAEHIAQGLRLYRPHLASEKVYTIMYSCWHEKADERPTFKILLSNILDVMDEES

SMILES	DC50 [nM]
Cc1cc(-c2ncnn3cc(CCN4CCN(c5ccc(NC6CCC(=O)NC6=O)cn5)CC4)cc23)ccc1CNC(=O)c1noc(C(C)(C)C)n1 (centres unmarked) [Example 260, 5-(tert-butyl)-N-(4-(6-(2-(4-(5-((2,6-dioxopiperidin-3-yl)amino)pyridin-2-yl)piperazin-1-yl)ethyl)pyrrolo[2,1-f][1,2,4]triazin-4-yl)-2-methylbenzyl)-1,2,4-oxadiazole-3-carboxamide]	< 100
Cc1cc(-c2ncnn3cc(CCN4CCN(c5ncc(NC6CCC(=O)NC6=O)cc5F)CC4)cc23)ccc1CNC(=O)c1noc(C(C)(C)C)n1 (centres unmarked) [Example 263, 5-(tert-butyl)-N-(4-(6-(2-(4-(5-((2,6-dioxopiperidin-3-yl)amino)-3-fluoropyridin-2-yl)piperazin-1-yl)ethyl)pyrrolo[2,1-f][1,2,4]triazin-4-yl)-2-methylbenzyl)-1,2,4-oxadiazole-3-carboxamide]	< 100
Cc1cc(-c2ncnn3cc(CCN4CCC(c5ccc(OC6CCC(=O)NC6=O)cn5)CC4)cc23)ccc1CNC(=O)c1noc(C(C)(C)C)n1 (centres unmarked) [Example 264, 5-(tert-butyl)-N-(4-(6-(2-(4-(5-((2,6-dioxopiperidin-3-yl)oxy)pyridin-2-yl)piperidin-1-yl)ethyl)pyrrolo[2,1-f][1,2,4]triazin-4-yl)-2-methylbenzyl)-1,2,4-oxadiazole-3-carboxamide]	< 100
Cc1cc(-c2ncnn3cc(CCN4CCC(c5ccc6c(C7CCC(=O)NC7=O)nn(C)c6c5)CC4)cc23)ccc1CNC(=O)c1ccn(C(C)(C)C)n1 (centres unmarked) [Example 273, 1-(tert-butyl)-N-(4-(6-(2-(4-(3-(2,6-dioxopiperidin-3-yl)-1-methyl-1H-indazol-6-yl)piperidin-1-yl)ethyl)pyrrolo[2,1-f][1,2,4]triazin-4-yl)-2-methylbenzyl)-1H-pyrazole-3-carboxamide]	< 100
Cc1cc(-c2ncnn3cc(CCN4CCC(c5ccc(NC6CCC(=O)NC6=O)cc5)C(F)(F)C4)cc23)ccc1CNC(=O)c1noc(C(C)(C)C)n1 (centres unmarked) [Example 275, 5-(tert-butyl)-N-(4-(6-(2-(4-(4-((2,6-dioxopiperidin-3-yl)amino)phenyl)-3,3-difluoropiperidin-1-yl)ethyl)pyrrolo[2,1-f][1,2,4]triazin-4-yl)-2-methylbenzyl)-1,2,4-oxadiazole-3-carboxamide]	< 100
Cc1cc(-c2ncnn3cc(CCCCN4CCN(c5ccc(C6CCC(=O)NC6=O)cn5)CC4)cc23)ccc1CNC(=O)c1noc(C(C)(C)C)n1 (centres unmarked) [Example 279, 5-(tert-butyl)-N-(4-(6-(4-(4-(5-(2,6-dioxopiperidin-3-yl)pyridin-2-yl)piperazin-1-yl)butyl)pyrrolo[2,1-f][1,2,4]triazin-4-yl)-2-methylbenzyl)-1,2,4-oxadiazole-3-carboxamide]	< 100
Cc1cc(-c2ncnn3cc(CCCCN4CCC(c5ccc6c(N7CCC(=O)NC7=O)nn(C)c6c5)CC4)cc23)ccc1CNC(=O)c1cnn(C(C)(C)C)c1 [Example 281, 1-(tert-butyl)-N-(4-(6-(4-(4-(3-(2,4-dioxotetrahydropyrimidin-1(2H)-yl)-1-methyl-1H-indazol-6-yl)piperidin-1-yl)butyl)pyrrolo[2,1-f][1,2,4]triazin-4-yl)-2-methylbenzyl)-1H-pyrazole-4-carboxamide]	< 100
Cc1cc(-c2ncnn3cc(CCCCN4CCC(c5ccc6c(N7CCC(=O)NC7=O)nn(C)c6c5)CC4)cc23)ccc1CNC(=O)c1noc(C2(C(F)(F)F)CC2)n1 [Example 282, N-(4-(6-(4-(4-(3-(2,4-dioxotetrahydropyrimidin-1(2H)-yl)-1-methyl-1H-indazol-6-yl)piperidin-1-yl)butyl)pyrrolo[2,1-f][1,2,4]triazin-4-yl)-2-methylbenzyl)-5-(1-(trifluoromethyl)cyclopropyl)-1,2,4-oxadiazole-3-carboxamide]	< 100

The next lines start with the values.

DC50 [nM]	SMILES
< 100	Cc1cc(-c2ncnn3cc(CCN4CCC(c5ccc6c(C7CCC(=O)NC7=O)nn(C)c6c5)CC4)cc23)ccc1CNC(=O)c1noc(C(C)(C)C)n1 (centres unmarked) [Example 255, 5-(tert-butyl)-N-(4-(6-(2-(4-(3-(2,6-dioxopiperidin-3-yl)-1-methyl-1H-indazol-6-yl)piperidin-1-yl)ethyl)pyrrolo[2,1-f][1,2,4]triazin-4-yl)-2-methylbenzyl)-1,2,4-oxadiazole-3-carboxamide]
< 100	Cc1cc(-c2ncnn3cc(CCN4CCC(c5cc6c(cc5F)c(N5CCC(=O)NC5=O)nn6C)CC4)cc23)ccc1CNC(=O)c1noc(C(C)(C)C)n1 [Example 256, 5-(tert-butyl)-N-(4-(6-(2-(4-(3-(2,4-dioxotetrahydropyrimidin-1(2H)-yl)-5-fluoro-1-methyl-1H-indazol-6-yl)piperidin-1-yl)ethyl)pyrrolo[2,1-f][1,2,4]triazin-4-yl)-2-methylbenzyl)-1,2,4-oxadiazole-3-carboxamide]
< 100	Cc1cc(-c2ncnn3cc(CCN4CCC(c5ccc6c(N7CCC(=O)NC7=O)nn(C)c6c5)CC4)cc23)ccc1CNC(=O)c1noc(C2(C)CCC2)n1 [Example 257, N-(4-(6-(2-(4-(3-(2,4-dioxotetrahydropyrimidin-1(2H)-yl)-1-methyl-1H-indazol-6-yl)piperidin-1-yl)ethyl)pyrrolo[2,1-f][1,2,4]triazin-4-yl)-2-methylbenzyl)-5-(1-methylcyclobutyl)-1,2,4-oxadiazole-3-carboxamide]
< 100	Cc1cc(-c2ncnn3cc(CCN4CCC(c5ccc6c(N7CCC(=O)NC7=O)nn(C)c6c5)CC4)cc23)ccc1CNC(=O)c1cnn(C(C)(C)C)c1 [Example 258, 1-(tert-butyl)-N-(4-(6-(2-(4-(3-(2,4-dioxotetrahydropyrimidin-1(2H)-yl)-1-methyl-1H-indazol-6-yl)piperidin-1-yl)ethyl)pyrrolo[2,1-f][1,2,4]triazin-4-yl)-2-methylbenzyl)-1H-pyrazole-4-carboxamide]
< 100	Cc1cc(-c2ncnn3cc(CCN4CCC(c5ccc6c(N7CCC(=O)NC7=O)nn(C)c6c5F)CC4)cc23)ccc1CNC(=O)c1noc(C(C)(C)C)n1 [Example 259, 5-(tert-butyl)-N-(4-(6-(2-(4-(3-(2,4-dioxotetrahydropyrimidin-1(2H)-yl)-7-fluoro-1-methyl-1H-indazol-6-yl)piperidin-1-yl)ethyl)pyrrolo[2,1-f][1,2,4]triazin-4-yl)-2-methylbenzyl)-1,2,4-oxadiazole-3-carboxamide]
< 100	Cc1cc(-c2ncnn3cc(CCN4CCC(c5ccn6c(N7CCC(=O)NC7=O)cnc6c5)CC4)cc23)ccc1CNC(=O)c1noc(C(C)(C)C)n1 [Example 269, 5-(tert-butyl)-N-(4-(6-(2-(4-(3-(2,4-dioxotetrahydropyrimidin-1(2H)-yl)imidazo[1,2-a]pyridin-7-yl)piperidin-1-yl)ethyl)pyrrolo[2,1-f][1,2,4]triazin-4-yl)-2-methylbenzyl)-1,2,4-oxadiazole-3-carboxamide]
< 100	Cc1cc(-c2ncnn3cc(CCN4CCC(c5ccc6c(N7CCC(=O)NC7=O)cnn6c5)CC4)cc23)ccc1CNC(=O)c1noc(C(C)(C)C)n1 [Example 270, 5-(tert-butyl)-N-(4-(6-(2-(4-(3-(2,4-dioxotetrahydropyrimidin-1(2H)-yl)pyrazolo[1,5-a]pyridin-6-yl)piperidin-1-yl)ethyl)pyrrolo[2,1-f][1,2,4]triazin-4-yl)-2-methylbenzyl)-1,2,4-oxadiazole-3-carboxamide]
< 100	Cc1cc(-c2ncnn3cc(CCN4CCC(c5ccc6c(N7CCC(=O)NC7=O)nn(C)c6c5)CC4)cc23)ccc1CNC(=O)c1cn(C(C)(C)C)nn1 [Example 271]
> 1000	Cc1cc(-c2ncnn3cc(CCN4CCC(c5ccc6c(N7CCC(=O)NC7=O)noc6c5)CC4)cc23)ccc1CNC(=O)c1noc(C(C)(C)C)n1 [Example 272, 5-(tert-butyl)-N-(4-(6-(2-(4-(3-(2,4-dioxotetrahydropyrimidin-1(2H)-yl)benzo[d]isoxazol-6-yl)piperidin-1-yl)ethyl)pyrrolo[2,1-f][1,2,4]triazin-4-yl)-2-methylbenzyl)-1,2,4-oxadiazole-3-carboxamide]
< 100	Cc1cc(-c2ncnn3cc(CCN4CCC(c5ccc6c7c(cccc57)C(=O)N6C5CCC(=O)NC5=O)CC4)cc23)ccc1CNC(=O)c1noc(C(C)(C)C)n1 (centres unmarked) [Example 274, 5-(tert-butyl)-N-(4-(6-(2-(4-(1-(2,6-dioxopiperidin-3-yl)-2-oxo-1,2-dihydrobenzo[cd]indol-6-yl)piperidin-1-yl)ethyl)pyrrolo[2,1-f][1,2,4]triazin-4-yl)-2-methylbenzyl)-1,2,4-oxadiazole-3-carboxamide]
< 100	Cc1cc(-c2ncnn3cc(CCCCN4CCC(c5ccc6c(N7CCC(=O)NC7=O)nn(C)c6c5F)CC4)cc23)ccc1CNC(=O)c1noc(C(C)(C)C)n1 [Example 278, 5-(tert-butyl)-N-(4-(6-(4-(4-(3-(2,4-dioxotetrahydropyrimidin-1(2H)-yl)-7-fluoro-1-methyl-1H-indazol-6-yl)piperidin-1-yl)butyl)pyrrolo[2,1-f][1,2,4]triazin-4-yl)-2-methylbenzyl)-1,2,4-oxadiazole-3-carboxamide]
< 100	Cc1cc(-c2ncnn3cc(CCCCN4CCC(c5ccc6c(N7CCC(=O)NC7=O)nn(C)c6c5)CC4)cc23)ccc1CNC(=O)c1cc(C(C)(C)C)no1 [Example 280, 3-(tert-butyl)-N-(4-(6-(4-(4-(3-(2,4-dioxotetrahydropyrimidin-1(2H)-yl)-1-methyl-1H-indazol-6-yl)piperidin-1-yl)butyl)pyrrolo[2,1-f][1,2,4]triazin-4-yl)-2-methylbenzyl)isoxazole-5-carboxamide]
